{"source": "patent US9981988B2", "about": "“Polymorphic forms and co-crystals of a c-Met inhibitor” (AMGEN, INC., priority 2014, dated 2018)", "format_in_all_cases": "physicochemical", "key": {"[1]": {"assay": "Solid state stability under accelerated stability testing conditions, HPLC", "method": "(§1) High performance liquid chromatography (HPLC) analyses were performed on an Agilent 1100 or 1200 series HPLC equipped with a binary pump, diode-array detector, thermostated column compartment, and auto sampler. Separation and elution was achieved using a reverse-phase column and 0.1% triflouroacetic acid/water/acetonitrile mobile phase.\nSolid samples of the free base monohydrate form of Compound M were placed under accelerated stability testing conditions (25° C./60% RH, 40° C./75% RH and 60° C./ambient RH) for 12 weeks."}, "[2]": {"assay": "Photostability of solid powder (1×ICH dose UV and visible light), HPLC", "details": "for degradation: 1×ICH dose, clear glass vials", "method": "as §1\nAs shown in the table below minimal degradation, 0.4% and 0.2%, was detected in samples in clear glass vials under UV and visible light, respectively."}, "[3]": {"assay": "Equilibrium solubility in water and aqueous media", "details": "22.5 °C, thermodynamic from solid", "method": "In all studies, excess solid of the compound was allowed to equilibrate at a temperature in the range of about 20 to 25° C. for 12-48 hours while stirring."}, "[4]": {"assay": "Solubility in organic solvents", "details": "20 °C, thermodynamic from solid, 20 to 25° C., at least 12 hours", "method": "In all studies, excess solid of the compound was allowed to equilibrate for at least 12 hours while stirring."}, "[5]": {"assay": "Equilibrium solubility in water and aqueous media", "details": "water, 22.5 °C, thermodynamic from solid"}, "[6]": {"details": "Visible (1200 klux × h), Amber vial"}, "[7]": {"details": "Visible (1200 klux × h), Clear vial"}}, "data": [{"smiles": "COCCOc1cnc2ccn([C@H](C)c3nnc4c(F)cc(-c5cnn(C)c5)cn34)c(=O)c2c1", "note": "[free base monohydrate form of Compound M, 6-{(1R)-1-[8-fluoro-6-(1-methyl-1H-pyrazol-4-yl)[1,2,4]triazolo[4,3-a]pyridin-3-yl]ethyl}-3-(2-methoxyethoxy)-1,6-naphthyridin-5(6H)-one]", "values": [{"measurement": "Area % (215 nm), peak 4, RRT 1.53", "setting": "[1]; Week 12, 40/75", "value": "<0.1", "unit": "Area %"}, {"measurement": "Area % (215 nm), peak monohydrate, RRT 1.00", "setting": "[1]; Week 12, 40/75", "value": 100.0, "unit": "Area %"}, {"measurement": "Total Impurities, Area % (215 nm)", "setting": "[1]; Week 12, 40/75", "value": "<0.1", "unit": "Area %"}, {"measurement": "Area % (215 nm), peak 2, RRT 1.09", "setting": "[1]; Week 12, −20 C.", "value": "<0.1", "unit": "Area %"}, {"measurement": "Area % (215 nm), peak 3, RRT 1.25", "setting": "[1]; Week 12, −20 C.", "value": "<0.1", "unit": "Area %"}, {"measurement": "Area % (215 nm), peak 4, RRT 1.53", "setting": "[1]; Week 12, −20 C.", "value": "<0.1", "unit": "Area %"}, {"measurement": "Area % (215 nm), peak monohydrate, RRT 1.00", "setting": "[1]; Week 12, −20 C.", "value": 100.0, "unit": "Area %"}, {"measurement": "Total Impurities, Area % (215 nm)", "setting": "[1]; Week 12, −20 C.", "value": "<0.1", "unit": "Area %"}, {"measurement": "physical form", "setting": "[1]; over 12 weeks at 25° C. and 60% relative humidity or at 40° C. and 75% relative humidity", "value": "remains in substantially the same physical form"}, {"measurement": "chemical degradation", "setting": "[2]; 1×ICH dose for UV and visible light, amber glass vials", "value": "no chemical degradation"}, {"measurement": "Area % (215 nm), peak No MS signal, RRT 0.80", "setting": "[2]; UV (200 W × h/m^2), Amber vial", "value": "<0.01", "unit": "Area %"}, {"measurement": "Area % (215 nm), peak m/z 390, RRT 0.84", "setting": "[2]; UV (200 W × h/m^2), Amber vial", "value": 0.06, "unit": "Area %"}, {"measurement": "Area % (215 nm), peak m/z 520 [M + Na]^+, RRT 0.83", "setting": "[2]; UV (200 W × h/m^2), Amber vial", "value": "<0.01", "unit": "Area %"}, {"measurement": "Area % (215 nm), peak m/z 581, RRT 0.82", "setting": "[2]; UV (200 W × h/m^2), Amber vial", "value": "<0.01", "unit": "Area %"}, {"measurement": "Area % (215 nm), peak m/z 638, RRT 1.16", "setting": "[2]; UV (200 W × h/m^2), Amber vial", "value": 0.05, "unit": "Area %"}, {"measurement": "Area % (215 nm), peak monohydrate, RRT 1.00", "setting": "[2]; UV (200 W × h/m^2), Amber vial", "value": 99.89, "unit": "Area %"}, {"measurement": "Total Impurities, Area % (215 nm)", "setting": "[2]; UV (200 W × h/m^2), Amber vial", "value": 0.11, "unit": "Area %"}, {"measurement": "Area % (215 nm), peak No MS signal, RRT 0.80", "setting": "[2]; UV (200 W × h/m^2), Clear vial", "value": 0.02, "unit": "Area %"}, {"measurement": "Area % (215 nm), peak m/z 390, RRT 0.84", "setting": "[2]; UV (200 W × h/m^2), Clear vial", "value": 0.19, "unit": "Area %"}, {"measurement": "Area % (215 nm), peak m/z 520 [M + Na]^+, RRT 0.83", "setting": "[2]; UV (200 W × h/m^2), Clear vial", "value": 0.06, "unit": "Area %"}, {"measurement": "Area % (215 nm), peak m/z 581, RRT 0.82", "setting": "[2]; UV (200 W × h/m^2), Clear vial", "value": 0.05, "unit": "Area %"}, {"measurement": "Area % (215 nm), peak m/z 638, RRT 1.16", "setting": "[2]; UV (200 W × h/m^2), Clear vial", "value": 0.04, "unit": "Area %"}, {"measurement": "Area % (215 nm), peak monohydrate, RRT 1.00", "setting": "[2]; UV (200 W × h/m^2), Clear vial", "value": 99.64, "unit": "Area %"}, {"measurement": "Total Impurities, Area % (215 nm)", "setting": "[2]; UV (200 W × h/m^2), Clear vial", "value": 0.36, "unit": "Area %"}, {"measurement": "degradation", "setting": "[2]; UV light", "value": 0.4, "unit": "%"}, {"measurement": "Area % (215 nm), peak No MS signal, RRT 0.80", "setting": "[2]; [6]", "value": "<0.01", "unit": "Area %"}, {"measurement": "Area % (215 nm), peak m/z 390, RRT 0.84", "setting": "[2]; [6]", "value": 0.05, "unit": "Area %"}, {"measurement": "Area % (215 nm), peak m/z 520 [M + Na]^+, RRT 0.83", "setting": "[2]; [6]", "value": "<0.01", "unit": "Area %"}, {"measurement": "Area % (215 nm), peak m/z 581, RRT 0.82", "setting": "[2]; [6]", "value": "<0.01", "unit": "Area %"}, {"measurement": "Area % (215 nm), peak m/z 638, RRT 1.16", "setting": "[2]; [6]", "value": 0.05, "unit": "Area %"}, {"measurement": "Area % (215 nm), peak monohydrate, RRT 1.00", "setting": "[2]; [6]", "value": 99.89, "unit": "Area %"}, {"measurement": "Total Impurities, Area % (215 nm)", "setting": "[2]; [6]", "value": 0.11, "unit": "Area %"}, {"measurement": "Area % (215 nm), peak No MS signal, RRT 0.80", "setting": "[2]; [7]", "value": "<0.01", "unit": "Area %"}, {"measurement": "Area % (215 nm), peak m/z 390, RRT 0.84", "setting": "[2]; [7]", "value": 0.13, "unit": "Area %"}, {"measurement": "Area % (215 nm), peak m/z 520 [M + Na]^+, RRT 0.83", "setting": "[2]; [7]", "value": "<0.01", "unit": "Area %"}, {"measurement": "Area % (215 nm), peak m/z 581, RRT 0.82", "setting": "[2]; [7]", "value": "<0.01", "unit": "Area %"}, {"measurement": "Area % (215 nm), peak m/z 638, RRT 1.16", "setting": "[2]; [7]", "value": 0.04, "unit": "Area %"}, {"measurement": "Area % (215 nm), peak monohydrate, RRT 1.00", "setting": "[2]; [7]", "value": 99.83, "unit": "Area %"}, {"measurement": "Total Impurities, Area % (215 nm)", "setting": "[2]; [7]", "value": 0.17, "unit": "Area %"}, {"measurement": "degradation", "setting": "[2]; visible light", "value": 0.2, "unit": "%"}, {"measurement": "solubility", "setting": "[3]; 0.01N HCl, pH 1.9, simulated gastric fluid, 0.01N HCl, pH 1.9, 20 to 25° C., 12-48 hours, read-out: Solubility", "value": 350, "unit": "µg/mL"}, {"measurement": "solubility", "setting": "[3]; FaSIF, pH 6.8, fassif, FaSIF, pH 6.8, 20 to 25° C., 12-48 hours, read-out: Solubility", "value": 440, "unit": "µg/mL"}, {"measurement": "solubility", "setting": "[3]; PBS, pH 6.9, aqueous buffer, PBS, pH 6.9, 20 to 25° C., 12-48 hours, read-out: Solubility", "value": 180, "unit": "µg/mL"}, {"measurement": "solubility", "setting": "[3]; SGF, pH 2.1, aqueous with cosolvent or surfactant or cyclodextrin, SGF (0.25% (w/v) SDS 0.2% (w/v) NaCl in 0.01N HCl), pH 2.1, 20 to 25° C., 12-48 hours, read-out: Solubility", "value": 1440, "unit": "µg/mL"}, {"measurement": "solubility", "setting": "[3]; aqueous medium, pH adjusted with HCl, pH 0.73, aqueous buffer, pH 0.73 (adjusted with HCl), read-out: solubility", "value": 9740, "unit": "µg/mL"}, {"measurement": "solubility", "setting": "[3]; aqueous medium, pH adjusted with methane sulfonic acid, pH 0.8, aqueous buffer, pH 0.80 (adjusted with methane sulfonic acid), read-out: solubility", "value": 12400, "unit": "µg/mL"}, {"measurement": "solubility at 40 h", "setting": "[3]; water, pH 4.7, water, Sample 1, duration 40 h, isolation method 1, pH 4.70, about 20 to 25° C.", "value": 253, "unit": "µg/mL"}, {"measurement": "solubility", "setting": "[3]; water, water, water, pH about 4 to about 7, about 20° C. to about 25° C., read-out: aqueous solubility", "value": 260, "unit": "µg/mL"}, {"measurement": "solubility", "setting": "[4]; aqueous with cosolvent or surfactant or cyclodextrin, 25% Dimethyl sulfoxide in water, solid form: monohydrate", "value": 590, "unit": "µg/mL"}, {"measurement": "solubility", "setting": "[4]; aqueous with cosolvent or surfactant or cyclodextrin, 50% Dimethyl sulfoxide in water, solid form: monohydrate", "value": 1020, "unit": "µg/mL"}, {"measurement": "solubility", "setting": "[4]; aqueous with cosolvent or surfactant or cyclodextrin, 75% Dimethyl sulfoxide in water, solid form: monohydrate", "value": 8450, "unit": "µg/mL"}, {"measurement": "solubility", "setting": "[4]; organic solvent or mixture, Acetonitrile, solid form: monohydrate (extra peak observed)", "value": 127000, "unit": "µg/mL"}, {"measurement": "solubility", "setting": "[4]; organic solvent or mixture, Ethanol, solid form: monohydrate", "value": 29700, "unit": "µg/mL"}, {"measurement": "solubility", "setting": "[4]; organic solvent or mixture, Ethyl Acetate, solid form: monohydrate", "value": 20100, "unit": "µg/mL"}, {"measurement": "solubility", "setting": "[4]; organic solvent or mixture, Isopropanol, solid form: monohydrate", "value": 8800, "unit": "µg/mL"}, {"measurement": "solubility", "setting": "[4]; organic solvent or mixture, Methanol, solid form: monohydrate", "value": 53900, "unit": "µg/mL"}, {"measurement": "solubility", "setting": "[4]; organic solvent or mixture, Methyl Ethyl Ketone, solid form: monohydrate + trace acetone solvate", "value": 45800, "unit": "µg/mL"}, {"measurement": "solubility", "setting": "[4]; organic solvent or mixture, Toluene, solid form: monohydrate", "value": 1900, "unit": "µg/mL"}, {"measurement": "solubility at 138 h", "setting": "[5]; pH 4.09, water, Sample 2, duration 138 h, isolation method 1, pH 4.09, about 20 to 25° C.", "value": 259, "unit": "µg/mL"}, {"measurement": "solubility at 69 h", "setting": "[5]; pH 6.85, water, Sample 3, duration 69 h, isolation method 2, pH 6.85, about 20 to 25° C.", "value": 262, "unit": "µg/mL"}]}]}
